For one data set, the target named is type I IGF receptor. The experiment in a line: Inhibition of 125I-hIGF-I binding to human placental membranes (type I IGF receptor binding). The settings on record: FIG. 6; for pIC50: human placental membranes, type I IGF receptor.
The test system of data set [1] is human serum carrier proteins. The experiment in a line: Inhibition of 125I-hIGF-I binding to acid stable human serum carrier proteins. The following applies: FIG. 7; for pIC50: acid stable human carrier proteins.
The next data set deals with 3T3 cells. Kind of data set: Stimulation of DNA synthesis in 3T3 cells. Type of data set: cell-based, mouse. The settings on record: FIG. 9; for potency in stimulating DNA synthesis relative to normal/wild-type IGF-I: 3T3 cells; for potency in stimulating DNA synthesis relative to wild type IGF-I: mouse 3T3 cells. From the text: IGF-I stimulates DNA synthesis in mouse 3T3 cells.

Another data set concerns rat adipose tissue. The experiment in a line: Incorporation of 14C-glucose into lipid in rat adipose tissue in vivo. The settings on record: FIG. 10 part B.
In data set [2] the test system is native binding protein in rat serum. Kind of data set: Binding of 125I-labelled peptide to components in normal rat serum (gel chromatography). The settings on record: for binding to rat serum carrier proteins / native binding protein in rat serum (in words): normal rat serum, FIG. 8. On the procedure: ^125 I-labelled analog IGF132 was monitored for the ability to bind components in normal rat serum. When ^125 I-IGF or ^125 I-IGF132 is chromatographed without prior incubation with serum, the radioactivity is eluted in a broad peak which migrates at the position expected for a 7.5 kD peptide (FIG. 8A). After incubation of ^125 I-IGF with rat serum, a radioactive peak appears which elutes at the position expected for a 150 kD protein, and the amount of radioactivity in the free ^125 I-αIGF peak decreases (FIG. 8B). The ^125 I-αIGF bound to the 150 kD species represents 36%±5% of the total ^125 I-IGF-I in the incubation. When the incubation is performed in the presence of 1 μg unlabelled IGF, only one radioactive peak is observed and this corresponds to unbound ^125 I-IGF (FIG. 8B (0)). Thus, under the conditions of this assay, the binding of ^125 I-IGF to the 150 kD species from rat serum is saturable.

A further data set concerns serum carrier proteins. The settings on record: cited from earlier work.

pIC50: −log10 of the molar value. “Also recorded” adds a separate entry of the source. A value given as a limit tells only on which side of the number the result lay.

Substance GPQALCGAELVDALYL-R1 [IGF252] gave a pIC50 at type I IGF receptor of 8.30. For the same substance, in data set [1], the “binding to human serum carrier proteins (in words)” value is “very weakly bound” and the pIC50 is 6.52. For the same substance, in the data set with 3T3 cells, the “potency in stimulating DNA synthesis relative to normal/wild-type IGF-I” value is 10 times and the “potency in stimulating DNA synthesis relative to wild type IGF-I” value is given as “about 10 fold”. In addition, in the data set on rat adipose tissue, the “stimulation of lipid synthesis in adipose tissue in vivo (in words)” value is recorded as “Neither IGF-I nor IGF252 stimulate lipid synthesis; also recorded: neither IGF-I nor IGF252 stimulates the incorporation”.

Take “GPETLCGAELVDALQF-R1 [hIGF-I, reference compound]”: the pIC50 at type I IGF receptor was 8.25; in data set [1], 9.38. Also, the “binding to human serum carrier proteins (in words)” value in data set [1] is “tightly bound”. Further, the “125I-peptide bound to the 150 kD species, share of the total in the incubation” value in data set [2] (after incubation with rat serum, FIG. 8B) is listed as 36%±5%. In addition, the “binding to rat serum carrier proteins / native binding protein in rat serum (in words)” value in data set [2] was “binds in a saturable fashion”; in data set [2] (listed as IGF), “saturable”. Also, the “stimulation of lipid synthesis in adipose tissue in vivo (in words)” value with rat adipose tissue was “Neither IGF-I nor IGF252 stimulate lipid synthesis; also recorded: neither IGF-I nor IGF252 stimulates the incorporation”. Besides, in the data set on serum carrier proteins (normal human blood), the “share bound to serum carrier proteins in normal human blood” value is “greater than 99%”.

On to GPETLCGAELVDALYL-R1 [IGF122], for which the figures for the pIC50 (on type I IGF receptor; in data set [1]) were 8.35 and 8.68, respectively.

As for GPQALCGAELVDALQF-R1 [IGF130], the pIC50 on type I IGF receptor is 8.28; in data set [1] it was 8.74.

For “insulin: insulin; stated not to bind to serum carrier proteins”, the “binding to serum carrier proteins (in words, background observation)” value with serum carrier proteins is reported as “does not bind to serum carrier proteins”.

FVNQHLCGSHLVEALYL-R1 [IGF132]: in the data set on type I IGF receptor, the “affinity/potency at the type I IGF receptor compared to normal human IGF-I (in words)” value was “near equal affinity” and the negative-log IC50 (pIC50) is 7.92. Further, in data set [1], the “binding to human serum carrier proteins (in words)” value is on record as “greatly reduced binding; also recorded: very weakly bound” and the pIC50 is below 6.00. Moreover, the “binding to rat serum carrier proteins / native binding protein in rat serum (in words)” value in data set [2] is reported as “greatly reduced binding; also recorded: is not observed; also recorded: only free radioactive peptide is eluted”. Also, in the data set with 3T3 cells, the “potency in stimulating DNA synthesis relative to normal/wild-type IGF-I” value is on record as 10 times and the “potency in stimulating DNA synthesis relative to wild type IGF-I” value is reported as “about 10 fold”.

One may read the pIC50 as the IC50 on a negative log10 scale, so that one unit is a factor of ten.
